{"source": "paper PMC9471048", "about": "“The signaling and selectivity of α‐adrenoceptor agonists for the human α2A, α2B and α2C‐adrenoceptors and comparison with human α1 and β‐adrenoceptors” (Pharmacology Research & Perspectives, 2022)", "key": {"human α2A‐adrenoceptor [1]": {"target": "T1, human α2A‐adrenoceptor (Homo sapiens, UniProt P08913)", "T1 sequence (P08913 1-465)": "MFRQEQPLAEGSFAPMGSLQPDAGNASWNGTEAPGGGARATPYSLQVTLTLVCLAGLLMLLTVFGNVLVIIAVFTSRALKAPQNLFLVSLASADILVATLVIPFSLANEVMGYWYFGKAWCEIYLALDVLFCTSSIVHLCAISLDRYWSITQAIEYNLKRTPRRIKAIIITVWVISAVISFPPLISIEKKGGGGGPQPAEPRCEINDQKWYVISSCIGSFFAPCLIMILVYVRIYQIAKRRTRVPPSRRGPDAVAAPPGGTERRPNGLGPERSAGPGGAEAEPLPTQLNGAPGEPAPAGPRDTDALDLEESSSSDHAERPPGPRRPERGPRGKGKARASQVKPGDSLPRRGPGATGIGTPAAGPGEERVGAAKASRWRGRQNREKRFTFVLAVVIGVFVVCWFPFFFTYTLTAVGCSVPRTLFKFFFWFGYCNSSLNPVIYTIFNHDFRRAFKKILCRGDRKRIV", "assay": "ERK1/2‐phosphorylation in CHO‐α2A cells", "assay_type": "cell-based", "design": "expressed in transfected cells; host or cells: CHO-K1 with CRE-SPAP reporter"}, "human α2C‐adrenoceptor [2]": {"target": "T2, human α2C‐adrenoceptor (Homo sapiens, UniProt P18825)", "T2 sequence (P18825 1-462)": "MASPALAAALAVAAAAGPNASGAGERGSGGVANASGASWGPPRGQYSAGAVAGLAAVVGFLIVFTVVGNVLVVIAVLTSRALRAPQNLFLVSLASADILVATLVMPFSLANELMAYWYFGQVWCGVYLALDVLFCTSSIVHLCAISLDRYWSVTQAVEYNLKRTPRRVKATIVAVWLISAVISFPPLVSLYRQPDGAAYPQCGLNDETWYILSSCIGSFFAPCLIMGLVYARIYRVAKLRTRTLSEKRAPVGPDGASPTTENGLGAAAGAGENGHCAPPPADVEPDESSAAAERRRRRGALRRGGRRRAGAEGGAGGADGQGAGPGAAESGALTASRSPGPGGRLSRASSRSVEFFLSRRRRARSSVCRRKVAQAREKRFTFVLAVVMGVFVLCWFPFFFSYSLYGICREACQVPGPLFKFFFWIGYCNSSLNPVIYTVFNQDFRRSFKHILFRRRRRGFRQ", "assay": "ERK1/2‐phosphorylation in CHO‐α2C cells", "assay_type": "cell-based", "design": "expressed in transfected cells; host or cells: CHO-K1 with CRE-SPAP reporter", "conditions": "for Log EC50, ERK1/2‐phosphorylation: given as negative log EC50, mean ± SEM"}, "human α2A‐adrenoceptor [3]": {"target": "T1, human α2A‐adrenoceptor"}, "human α2C‐adrenoceptor [4]": {"target": "T2, human α2C‐adrenoceptor"}, "human α2C‐adrenoceptor [5]": {"target": "T2, human α2C‐adrenoceptor", "assay": "3H‐rauwolscine whole cell binding in CHO‐α2C cells", "design": "expressed in transfected cells; host or cells: CHO-K1 with CRE-SPAP reporter"}, "human α2A‐adrenoceptor [6]": {"target": "T1, human α2A‐adrenoceptor", "assay": "3H‐rauwolscine whole cell binding in CHO‐α2A cells", "design": "expressed in transfected cells; host or cells: CHO-K1 with CRE-SPAP reporter"}, "[7]": {"conditions": "CHO‐α2C cells, % inhibition from the 3 μM forskolin control, mean ± SEM"}, "[8]": {"conditions": "CHO‐α2C cells, CRE‐SPAP production in the absence of forskolin"}, "[9]": {"conditions": "CHO‐α2C cells, 3H‐rauwolscine whole cell binding, given as negative log KD, mean only (SEM in Table 4), read-out: Log KD (converted)"}, "[10]": {"conditions": "CHO‐α2C cells, maximum response compared to 10 μM PDBu, mean ± SEM"}, "[11]": {"conditions": "CHO‐α2C cells, inhibition of 3 μM forskolin‐stimulated CRE‐SPAP production, given as negative log IC50, mean ± SEM"}, "[12]": {"conditions": "CHO‐α2C cells, 3H‐rauwolscine whole cell binding, given as negative log KD, mean only (SEM in Table 4)"}}, "note": "Like-named read-outs stand apart in the source and are kept apart here."}
{"smiles": "COc1ccc(OC)c(C(O)CNC(=O)CN)c1", "note": "(stereo not drawn) [Midodrine]", "values": [{"measurement": "% 10 μM PDBu, ERK1/2‐phosphorylation, response at 100 μM agonist", "setting": "human α2A‐adrenoceptor [1]; CHO‐α2A, response at 100 μM", "value": "101.0 ± 15.5", "unit": "%"}, {"measurement": "% 10 μM PDBu, ERK1/2‐phosphorylation", "setting": "human α2C‐adrenoceptor [2]; CHO‐α2C cells, response at 100 μM ligand (no EC50 given) compared to 10 μM PDBu", "value": "80.9 ± 15.6", "unit": "%"}]}
{"smiles": "NC[C@H](O)c1ccc(O)c(O)c1", "note": "[Noradrenaline]", "values": [{"measurement": "% 3 μM forskolin, CRE‐SPAP (without forskolin)", "setting": "human α2A‐adrenoceptor [3]; CHO‐α2A (cell line 1), maximum response compared to 3 μM forskolin", "value": "171.5 ± 11.1", "unit": "%"}, {"measurement": "IC50", "setting": "human α2C‐adrenoceptor [4]", "value": 0.309, "unit": "µM"}, {"measurement": "% inhibition, CRE‐SPAP (with forskolin)", "setting": "human α2C‐adrenoceptor [4]; [7]", "value": "83.0 ± 3.1", "unit": "%"}, {"measurement": "Log EC50 (Gs), CRE‐SPAP (without forskolin)", "setting": "human α2C‐adrenoceptor [4]; [8]", "value": "No response"}, {"measurement": "Kd", "setting": "human α2C‐adrenoceptor [5]; 3H‐rauwolscine whole cell binding, living cells, negative log KD, mean ± SEM, read-out: Log KD, CHO‐α2C (converted)", "value": 32.4, "unit": "µM"}, {"measurement": "Kd", "setting": "human α2C‐adrenoceptor [5]; [9]", "value": 32.4, "unit": "µM"}, {"measurement": "% 10 μM PDBu, ERK1/2‐phosphorylation", "setting": "human α2A‐adrenoceptor [1]; CHO‐α2A, maximum response compared to 10 μM PDBu", "value": "121.9 ± 6.3", "unit": "%"}, {"measurement": "% 10 μM PDBu, ERK1/2‐phosphorylation", "setting": "human α2C‐adrenoceptor [2]; [10]", "value": "142.3 ± 10.7", "unit": "%"}]}
{"smiles": "C1=C(c2cnc[nH]2)c2ccsc2CC1", "note": "[RWJ52353]", "values": [{"measurement": "Log efficacy ratio (KD/IC50)", "setting": "human α2C‐adrenoceptor [4]", "value": 1.80}, {"measurement": "% inhibition, CRE‐SPAP (with forskolin)", "setting": "human α2C‐adrenoceptor [4]; [7]", "value": "76.5 ± 5.6", "unit": "%"}, {"measurement": "Log EC50 (Gs), CRE‐SPAP (without forskolin)", "setting": "human α2C‐adrenoceptor [4]; [8]", "value": "No response"}, {"measurement": "Log IC50 (Gi), CRE‐SPAP (with forskolin)", "setting": "human α2C‐adrenoceptor [4]; [11]", "value": "−6.47 ± 0.10"}, {"measurement": "Log KD (apparent), CHO‐α2C", "setting": "human α2C‐adrenoceptor [5]; 3H‐rauwolscine whole cell binding, ^app: apparent KD, IC50 from extrapolated curve as not all specific binding was inhibited", "value": "−4.67 ± 0.08^app"}, {"measurement": "Log KD", "setting": "human α2C‐adrenoceptor [5]; [12]", "value": "−4.67"}, {"measurement": "% 10 μM PDBu, ERK1/2‐phosphorylation", "setting": "human α2C‐adrenoceptor [2]; [10]", "value": "143.5 ± 14.0", "unit": "%"}, {"measurement": "Log EC50, ERK1/2‐phosphorylation", "setting": "human α2C‐adrenoceptor [2]; CHO‐α2C cells", "value": "−7.74 ± 0.09"}]}
{"smiles": "CNC[C@H](O)c1cccc(O)c1", "note": "[R‐phenylephrine]", "values": [{"measurement": "% inhibition, CRE‐SPAP (with forskolin)", "setting": "human α2C‐adrenoceptor [4]", "value": "77.5 ± 3.4", "unit": "%"}, {"measurement": "% 10 μM PDBu, ERK1/2‐phosphorylation", "setting": "human α2C‐adrenoceptor [2]", "value": "157.0 ± 15.4", "unit": "%"}]}
{"smiles": "CCc1cccc(CC)c1NC1=NCCN1", "note": "[ST‐91]", "values": [{"measurement": "Log efficacy ratio (KD/IC50)", "setting": "human α2C‐adrenoceptor [4]", "value": 1.28}, {"measurement": "% inhibition, CRE‐SPAP (with forskolin)", "setting": "human α2C‐adrenoceptor [4]; [7]", "value": "76.5 ± 4.4", "unit": "%"}, {"measurement": "Log EC50 (Gs), CRE‐SPAP (without forskolin)", "setting": "human α2C‐adrenoceptor [4]; [8]", "value": "No response"}, {"measurement": "Log IC50 (Gi), CRE‐SPAP (with forskolin)", "setting": "human α2C‐adrenoceptor [4]; [11]", "value": "−7.46 ± 0.09"}, {"measurement": "Log KD", "setting": "human α2C‐adrenoceptor [5]; [12]", "value": "−6.18"}, {"measurement": "% 10 μM PDBu, ERK1/2‐phosphorylation", "setting": "human α2C‐adrenoceptor [2]; [10]", "value": "154.0 ± 15.0", "unit": "%"}, {"measurement": "Log EC50, ERK1/2‐phosphorylation", "setting": "human α2C‐adrenoceptor [2]; CHO‐α2C cells", "value": "−7.93 ± 0.17"}]}
{"smiles": "OCc1cc(C(O)CNCCCCCCOCCCCc2ccccc2)ccc1O", "note": "(stereo not drawn) [Salmeterol]", "values": [{"measurement": "Log EC50 (Gs), CRE‐SPAP (without forskolin)", "setting": "human α2A‐adrenoceptor [3]; CHO‐α2A (cell line 1), absence of forskolin", "value": "No response"}, {"measurement": "Log IC50 (Gi), CRE‐SPAP (with forskolin)", "setting": "human α2A‐adrenoceptor [3]; CHO‐α2A (cell line 1, 5830 fmol/mg protein), 3 μM forskolin", "value": "No response"}, {"measurement": "Log IC50 (Gi), CRE‐SPAP (with forskolin)", "setting": "human α2C‐adrenoceptor [4]", "value": "No response"}, {"measurement": "Log EC50 (Gs), CRE‐SPAP (without forskolin)", "setting": "human α2C‐adrenoceptor [4]; [8]", "value": "No response"}, {"measurement": "Kd", "setting": "human α2A‐adrenoceptor [6]; read-out: Log KD (binding) (converted)", "value": 17.4, "unit": "µM"}, {"measurement": "Kd", "setting": "human α2C‐adrenoceptor [5]; [9]", "value": 5.25, "unit": "µM"}]}
{"smiles": "Cc1sc(C)c2c1CCC=C2c1cnc[nH]1.O=C(O)/C=C\\C(=O)O", "note": "[T‐CG 1000]", "values": [{"measurement": "Log efficacy ratio (KD/IC50)", "setting": "human α2C‐adrenoceptor [4]", "value": "−0.63"}, {"measurement": "% inhibition, CRE‐SPAP (with forskolin)", "setting": "human α2C‐adrenoceptor [4]; [7]", "value": "50.2 ± 5.1", "unit": "%"}, {"measurement": "Log EC50 (Gs), CRE‐SPAP (without forskolin)", "setting": "human α2C‐adrenoceptor [4]; [8]", "value": "No response"}, {"measurement": "Log IC50 (Gi), CRE‐SPAP (with forskolin)", "setting": "human α2C‐adrenoceptor [4]; [11]", "value": "−6.12 ± 0.05"}, {"measurement": "Log KD", "setting": "human α2C‐adrenoceptor [5]; [12]", "value": "−6.75"}, {"measurement": "% 10 μM PDBu, ERK1/2‐phosphorylation", "setting": "human α2C‐adrenoceptor [2]; [10]", "value": "87.5 ± 14.2", "unit": "%"}, {"measurement": "Log EC50, ERK1/2‐phosphorylation", "setting": "human α2C‐adrenoceptor [2]; CHO‐α2C cells", "value": "−7.05 ± 0.14"}]}
{"smiles": "COC(=O)[C@@H]1[C@H]2C[C@H]3c4[nH]c5ccccc5c4CCN3C[C@@H]2CC[C@@H]1O", "note": "[yohimbine]", "values": [{"measurement": "Schild slope (Gi), dexmedetomidine as agonist", "setting": "human α2A‐adrenoceptor [3]", "value": "1.11 ± 0.07"}, {"measurement": "Schild slope, inhibitory (Gi) component", "setting": "human α2A‐adrenoceptor [3]", "value": "1.00 ± 0.08"}, {"measurement": "Schild slope, stimulatory (Gs) component", "setting": "human α2A‐adrenoceptor [3]", "value": "0.92 ± 0.11"}]}
{"smiles": "CC(N)C(O)c1ccc(O)c(O)c1", "note": "(stereo not drawn) [α‐methylnorepinephrine]", "values": [{"measurement": "% 3 μM forskolin, CRE‐SPAP (without forskolin)", "setting": "human α2A‐adrenoceptor [3]", "value": "171.1 ± 4.3", "unit": "%"}, {"measurement": "Log EC50 (Gs), CRE‐SPAP (with forskolin)", "setting": "human α2A‐adrenoceptor [3]", "value": "−5.31 ± 0.05"}, {"measurement": "Log EC50 (Gs), CRE‐SPAP (without forskolin)", "setting": "human α2A‐adrenoceptor [3]", "value": "−5.29 ± 0.02"}, {"measurement": "Log IC50 (Gi), CRE‐SPAP (with forskolin)", "setting": "human α2A‐adrenoceptor [3]", "value": "−6.47 ± 0.05"}, {"measurement": "% inhibition, CRE‐SPAP (with forskolin)", "setting": "human α2C‐adrenoceptor [4]", "value": "85.2 ± 3.0", "unit": "%"}, {"measurement": "Log EC50 (Gs), CRE‐SPAP (without forskolin)", "setting": "human α2C‐adrenoceptor [4]", "value": "No response"}, {"measurement": "Log IC50 (Gi), CRE‐SPAP (with forskolin)", "setting": "human α2C‐adrenoceptor [4]", "value": "−6.52 ± 0.12"}, {"measurement": "Log KD (apparent), CHO‐α2A", "setting": "human α2A‐adrenoceptor [6]", "value": "−3.69 ± 0.04^app"}, {"measurement": "Log KD (binding)", "setting": "human α2A‐adrenoceptor [6]", "value": "−3.69"}, {"measurement": "Log KD", "setting": "human α2C‐adrenoceptor [5]", "value": "−5.16"}, {"measurement": "% 10 μM PDBu, ERK1/2‐phosphorylation", "setting": "human α2A‐adrenoceptor [1]", "value": "142.6 ± 22.3", "unit": "%"}]}
